Where two headings read alike, the source gives them in different places.
What was measured:
MV4–11 AML cells = experiment: Cell proliferation (CellTiter-Glo, 48 h), MV4-11; assay type: cell-based; details: Homo sapiens; MV4–11, 48 hours
Excerpt: (§1) Stable BaF3 populations expressing activated FLT3 were generated by retroviral spinfection with the appropriate mutated plasmid followed by selection and growth factor withdrawal as previously described. The BaF3 cell line was originally obtained from the laboratory of Charles Sawyers and has not been authenticated. MV411 and Molm14 cells were obtained from the laboratory of Scott Kogan and authenticated by Promega STR analysis in June 2013. All cell lines were mycoplasma-free. Cells were incubated with compounds for 48 hours and proliferation was assessed using CellTiter-Glo (Promega; Madison, WI) according to the manufacturer’s recommendation on a SpectraMax M3 microplate reader using SpectraMax Software (Molecular Devices; Sunnyvale, CA). All cell viability data shown is reflective of experiments performed a minimum of three times. […]
(§2) S13. Cell Cultures: Stable BaF3 populations expressing activated FLT3 were generated by retroviral spinfection with the appropriate mutated plasmid followed by selection and growth factor withdrawal as previously described .4 The BaF3 cell line was originally obtained from the laboratory of Charles Sawyers and has not been authenticated. MV411 and Molm14 cells were obtained from the laboratory of Scott Kogan and authenticated by Promega STR analysis in June
(§3) 2013. All cell lines were mycoplasma -free. Cells were incubated with compounds for 48 hours and proliferation was assessed using CellTiter -Glo (Promega; Madison, WI) according to the manufacturer’s recommendation on a SpectraMax M3 microplate reader using SpectraMax Software (Molecular Devices; Sunnyvale, CA). All cell viability data shown is reflective of experiments performed a minimum of three times.

Molm14^D835Y = experiment: Cell proliferation (CellTiter-Glo, 48 h), Molm14 D835Y; assay type: cell-based; details: Homo sapiens, MOLM-14; Molm14^D835Y, 48 hours
Excerpt: as §1, §2, §3

Molm14 par = experiment: Cell proliferation (CellTiter-Glo, 48 h), Molm14 par; assay type: cell-based; details: Homo sapiens, MOLM-14
Excerpt: as §1, §2, §3

Ba/F3 FLT3-ITD = experiment: Cell proliferation (CellTiter-Glo, 48 h), Ba/F3 FLT3-ITD; assay type: cell-based
Excerpt: as §1, §2, §3

Molm14^F691L = experiment: Cell proliferation (CellTiter-Glo, 48 h), Molm14 F691L; assay type: cell-based; details: Homo sapiens, MOLM-14; Molm14^F691L, 48 hours
Excerpt: as §1, §2, §3

FLT3 kinase = molecular target: T1, FLT3 kinase (Homo sapiens, UniProt P36888); experiment: Biochemical enzyme inhibition assay (microfluidics, Caliper EZ Reader II), FLT3; details: for IC50: in vitro kinase assay, 60 min pre-incubation, ATP 190 µM, three independent experiments; for LE: ligand efficiency for FLT3 inhibition
T1 construct: purchased Invitrogen
T1 sequence (P36888 27-993): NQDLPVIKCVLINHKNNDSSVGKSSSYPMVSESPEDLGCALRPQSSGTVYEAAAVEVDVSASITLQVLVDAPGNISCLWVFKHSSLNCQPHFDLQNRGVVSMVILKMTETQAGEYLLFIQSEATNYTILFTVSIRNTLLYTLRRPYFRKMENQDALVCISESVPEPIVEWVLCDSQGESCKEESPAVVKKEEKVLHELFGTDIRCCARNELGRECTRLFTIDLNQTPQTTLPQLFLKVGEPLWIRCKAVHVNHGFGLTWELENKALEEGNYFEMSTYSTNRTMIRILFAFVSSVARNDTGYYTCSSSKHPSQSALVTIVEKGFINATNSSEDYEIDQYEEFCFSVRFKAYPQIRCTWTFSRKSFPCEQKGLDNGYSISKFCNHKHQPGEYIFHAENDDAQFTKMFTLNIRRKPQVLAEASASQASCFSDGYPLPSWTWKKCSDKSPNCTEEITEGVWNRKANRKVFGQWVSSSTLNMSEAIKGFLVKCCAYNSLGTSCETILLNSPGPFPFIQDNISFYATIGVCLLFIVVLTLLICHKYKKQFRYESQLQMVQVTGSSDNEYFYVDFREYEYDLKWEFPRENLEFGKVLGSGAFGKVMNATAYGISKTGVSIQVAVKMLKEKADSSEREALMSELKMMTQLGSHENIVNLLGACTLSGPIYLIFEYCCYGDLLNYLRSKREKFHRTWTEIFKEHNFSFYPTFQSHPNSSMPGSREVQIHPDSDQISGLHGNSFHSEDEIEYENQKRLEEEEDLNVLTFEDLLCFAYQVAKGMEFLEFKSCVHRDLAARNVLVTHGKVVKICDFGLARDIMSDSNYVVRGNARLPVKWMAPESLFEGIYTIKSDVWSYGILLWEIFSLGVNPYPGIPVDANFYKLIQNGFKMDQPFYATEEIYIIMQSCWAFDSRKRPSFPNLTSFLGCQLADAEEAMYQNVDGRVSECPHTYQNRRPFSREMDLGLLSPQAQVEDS
Protocol: Kinase activity was measured in a microfluidics assay that monitors the separation of a phosphorylated product from substrate[31],[32]. […] After, 1 μL was transferred into a 384-well polypropylene assay plate (Greiner, Frickenhausen, Germany). The FLT3 enzyme (Invitrogen™, Grand Island, USA) was diluted in kinase buffer to a concentration of 2 nM and 5 µL of the enzyme mixture was transferred to the assay plate. The inhibitors/FLT3 enzyme were incubated for 60 minutes with minor shaking. […] For positive control, no inhibitor was added. For negative control, no enzyme was added. For running control, quizartinib was utilized. The plate was run until 10–20% conversion based on the positive control wells. The following separation conditions were utilized: upstream voltage −500V; downstream voltage, −1900V; chip pressure −0.8. Percent inhibition was measured for each well comparing starting peptide to phosphorylated product peaks relative to the baseline. Dose response curves, spanning the IC50 dose, were generated in GraphPad Prisim 6 and fit to an exponential one-phase decay line and IC50 values were obtained from the half-life value of the curve. IC50 values were generated in duplicate and error was calculated from the standard deviation between values.
S10. Biochemical Inhibition Assay:1,2 Kinase activity was measured in a microfluidics assay that monitors the separation of a phosphorylated product from substrate. The assay was run using a 12-sipper chip on a Caliper EZ Reader II (PerkinElmer®, Walthman, USA) with separation […]
Walthman, USA]). In 96-well polypropylene plates (Greiner, Frickenhausen, Germany) […]
After, 1 μL was transferred into a 384-well polypropylene assay plate (Greiner, Frickenhausen, Germany). The FLT3 enzyme (Invitrogen™, Grand Island, USA) was diluted in kinase buffer to a concentration of 2 nM and 5 µL of the enzyme mixture was transferred to the assay plate. The inhibitors/FLT3 enzyme were incubated for 60 minutes with minor shaking. A substrate mix was prepared containing ATP (Ambresco®, Solon, USA) and […]
USA) dissolved in kinase buffer, and 5 µL of the substrate mix was added to the assay plate.
For positive control, no inhibitor was added. For negative control, no enzyme was added. For running control, quizartinib was utilized. The plate was run until 10-20% conversion based on the positive control wells. The following separation conditions were utilized: upstream voltage -500V; downstream voltage, -1900V; chip pressure - 0.8. Percent inhibition was measured for each well comparing starting peptide to phosphorylated product peaks relative to the baseline. Dose response curves, spanning the IC50 dose, were generated in GraphPad Prisim 6 and fit to an exponential one-phase decay line and IC50 values were obtained from the half-life value of the curve. IC50 values were generated in duplicate and error was calculated from the standard deviation between values. […]

Compound | melting point | GI50 (MV4–11 AML cells) | GI50 (Molm14^D835Y) | GI50 (Molm14 par) | GI50 (Ba/F3 FLT3-ITD) | GI50 (Molm14^F691L) | IC50 (FLT3 kinase; read-out: FLT3 IC50 (nM) ± SD) | LE (FLT3 kinase) | IC50 (FLT3 kinase; FLT3 IC50 (nM) ± SD) | fold less active than 13a on FLT3 (FLT3 kinase; enzymatic FLT3 IC50 compared with 13a)
CNc1cc(Nc2ccc(CC(=O)Nc3cc(C(C)(C)C)nn3C)cc2)ncn1 [13b, 2-(4-(6-(Methylamino)pyrimidin-4-ylamino)phenyl)-N-(3-tert-butyl-1-methyl-1H-pyrazol-5-yl)acetamide] | 194 to 196 °C | 80.6 nM | 2230 nM | 187 nM | 158 nM | 1350 nM | 37.5 ± 13 nM | 0.35 |  | 
CC(C)(C)c1cc(NC(=O)Cc2ccc(Nc3cc(Nc4cccc(C(F)(F)F)c4)ncn3)cc2)no1 [13m, 2-(4-(6-(3-(Trifluoromethyl)phenylamino)pyrimidin-4-ylamino)phenyl)-N-(5-tert-butylisoxazol-3-yl)acetamide] | 254 to 256 °C |  |  |  |  |  | 1180 ± 527 nM | 0.22 |  | 
CC(C)(C)c1cc(NC(=O)Cc2ccc(Nc3cc(NCCCN4CCCC4)ncn3)cc2)no1 [13n, 2-(4-(6-(3-(Pyrrolidin-1-yl)propylamino)pyrimidin-4-ylamino)phenyl)-N-(5-tert-butylisoxazol-3-yl)acetamide] | 154 to 156 °C |  |  |  |  |  | 1030 ± 121 nM | 0.23 |  | 
CC(C)(C)c1cc(NC(=O)Cc2ccc(Nc3cc(Oc4ccc(Br)cc4)ncn3)cc2)no1 [13o, 2-(4-(6-(4-Bromophenoxy)pyrimidin-4-ylamino)phenyl)-N-(5-tert-butylisoxazol-3-yl)acetamide] | 188 to 190 °C |  |  |  |  |  |  | 0.19 | 14800 ± 248 nM | 
CC(C)(C)c1cc(NC(=O)Cc2ccc(Nc3cc(N4CCOCC4)ncn3)cc2)no1 [13p, 2-(4-(6-Morpholinopyrimidin-4-ylamino)phenyl)-N-(5-tert-butylisoxazol-3-yl)acetamide] | 218 to 220 °C |  |  |  |  |  | 395 ± 78 nM | 0.28 |  | 
CN(C)c1cc(Oc2ccc(CC(=O)Nc3cc(C(C)(C)C)on3)cc2)ncn1 [13q, 2-(4-(6-(Dimethylamino)pyrimidin-4-yloxy)phenyl)-N-(5-tert-butylisoxazol-3-yl)acetamide] | 170 to 172 °C |  |  |  |  |  | 8760 ± 127 nM | 0.24 |  | 
CNc1cc(Nc2ccc(CC(=O)Nc3cccc(C(F)(F)F)c3)cc2)ncn1 [13r, 2-(4-(6-(Methylamino)pyrimidin-4-ylamino)phenyl)-N-(3-(trifluoromethyl)phenyl) acetamide] | 216 to 218 °C | 80.6 nM | 2230 nM | 187 nM | 266 nM | 1350 nM | 411 ± 236 nM | 0.30 |  | 
CS(=O)(=O)c1ccc(Nc2cc(Nc3ccc(CC(=O)Nc4cccc(C(F)(F)F)c4)cc3)ncn2)cc1 [13s, 2-(4-(6-(4-(Methylsulfonyl)phenylamino)pyrimidin-4-ylamino)phenyl)-N-(3-(trifluoromethyl)phenyl)acetamide] | 225 to 227 °C |  |  |  |  |  | 860 ± 30 nM | 0.22 |  | 
O=C(Cc1ccc(Nc2cc(NCCCN3CCCC3)ncn2)cc1)Nc1ccc(OC(F)(F)F)cc1 [13t, 2-(4-(6-(3-(Pyrrolidin-1-yl)propylamino)pyrimidin-4-ylamino)phenyl)-N-(4-(trifluoromethoxy)phenyl)acetamide] | 212 to 214 °C |  |  |  |  |  | 909 ± 95.9 nM | 0.22 |  | 
CNc1cc(Nc2ccc(CC(=O)Nc3ccc(S(C)(=O)=O)cc3)cc2)ncn1 [13v, 2-(4-(6-(methylamino)pyrimidin-4-ylamino)phenyl)-N-(4-(methylsulfonyl)phenyl) acetamide] | 220 to 222 °C | > 10000 nM | > 10000 nM | > 10000 nM | > 10000 nM | > 10000 nM | 2120 ± 401 nM | 0.27 |  | 
CNc1cc(Oc2ccc(CC(=O)Nc3ccc(C(C)(C)C)cc3)cc2)ncn1 [13x, 2-(4-(6-(Methylamino)pyrimidin-4-yloxy)phenyl)-N-(4-tert-butylphenyl)acetamide] | 208 to 210 °C |  |  |  |  |  | 5090 ± 75.5 nM | 0.25 |  | 
CNc1cc(Nc2ccc(CC(=O)Nc3ccc(OC(F)(F)F)cc3)cc2)ncn1 [13z, 2-(4-(6-(Methylamino)pyrimidin-4-ylamino)phenyl)-N-(4-(trifluoromethoxy)phenyl) acetamide] | 220 to 222 °C |  |  |  |  |  | 7370 ± 333 nM | 0.23 |  | 
Cn1nc(C(C)(C)C)cc1NC(=O)Nc1ccc(Nc2cc(Nc3ccc(S(C)(=O)=O)cc3)ncn2)cc1 [24a, 1-(4-(6-(4-(Methylsulfonyl)phenylamino)pyrimidin-4-ylamino)phenyl)-3-(3-tert-butyl-1-methyl-1H-pyrazol-5-yl)urea] | 238 to 240 °C |  |  |  |  |  | 41 ± 6.8 nM | 0.27 |  | ~ 3 fold
CNc1cc(Nc2ccc(NC(=O)Nc3cc(C(C)(C)C)nn3C)cc2)ncn1 [24b, 1-(4-(6-(Methylamino)pyrimidin-4-ylamino)phenyl)-3-(3-tert-butyl-1-methyl-1H-pyrazol-5-yl)urea] | 242 to 244 °C |  |  |  |  |  | 38.2 ± 1.5 nM | 0.37 |  | 
CC(C)(C)c1cc(NC(=O)Nc2ccc(Nc3cc(Nc4ccc(S(C)(=O)=O)cc4)ncn3)cc2)no1 [24c, 1-(4-(6-(4-(Methylsulfonyl)phenylamino)pyrimidin-4-ylamino)phenyl)-3-(5-tert-butylisoxazol-3-yl)urea] | 245 to 247 °C |  |  |  |  |  | 29 ± 1.9 nM | 0.28 |  | 
